Assays:
Huh7 cells = test: RNA-seq: differentially regulated off-target genes in transfected Huh7 cells; type: cell-based, human; conditions: 6 and 26 days, |log2FC|>2 and adjusted p-value<0.001, vs untreated naive
Excerpt: (§1) Seeded Huh7 cells were transfected with mRNA encoding a catalytically-active CasX 676, dXR1, or LTRP5-ADD-ZIM3 and a gRNA with scaffold 316 and a spacer targeting the PCSK9 locus. Cells were harvested at 6 and 26 days post-transfection and subsequently lysed and stored in DNA/RNA Shield (Zymo Research). As an additional control, untreated, naïve cells were also harvested. The collected samples were subjected to gDNA/RNA extraction using the Quick-DNA/RNA Miniprep Plus kit (Zymo Research). RNA samples were used for total RNA sequencing (RNA-seq), which was performed by a third-party. Raw FASTQ files were received and processed with FASTQC, and adapters were trimmed using Trim Galore. Transcript expression was then quantified against the hg38 genome using Salmon to generate normalized counts for each gene (transcripts per million, or TPM). Differential expression analysis was performed using DESeq2. Genes with fewer than 10 counts in all samples were omitted from analysis, and all pairwise comparisons (e.g., differential gene expression analyses between untreated and treated conditions at the two individual timepoints) were done with significance thresholds of |log 2FC|>2 and adjusted p-value<0.001.

human PCSK9 locus [1] = test: RNA-seq: normalized PCSK9 read counts (log2FC) in transfected Huh7 cells; type: cell-based; conditions: mRNA + gRNA scaffold 316 (v1), 6 and 26 days post-transfection, vs untreated naive
Excerpt: as §1

human PCSK9 locus [2] = test: Secreted PCSK9 by ELISA (normalized to total cell count) in Huh7 cells transfected with mRNA and gRNA; type: cell-based; conditions: paired with LTRP5-ADD-ZIM3 mRNA, Huh7 cells, 6 days post-transfection; for Secreted PCSK9: normalized to total cell count; for Percent reduction in PCSK9 secretion: relative to non-targeting gRNA control; for Average percent reduction in PCSK9 secretion: averaged from the two doses
Procedure, shortened: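 Huh7 cells were transfected with CasX or epigenetic-editor mRNA plus PCSK9- or B2M-targeting gRNA (scaffold 316). In one screen, LTRP5-ADD-ZIM3 mRNA:gRNA was given at 50:25 or 25:12.5 ng by Lipofectamine 3000. Secreted PCSK9 was measured by ELISA in supernatant 4-87 days post-transfection and normalized to total cell count.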

mouse PCSK9 locus = test: Intracellular PCSK9 staining by flow cytometry in Hepa1-6 cells lipofected with mRNA and gRNA; type: cell-based; conditions: for permanence of PCSK9 silencing by spacer: paired with LTRP1-ZIM3 mRNA, through day 25
Procedure: Seeded Hepa1-6 cells treated with the NATE™ inhibitor were lipofected with 300 ng of mRNA encoding dXR1 or LTRP1-ZIM3 (Table 12) and 150 ng of a PCSK9-targeting gRNA (Table 14). Seven different gRNAs spanning the promoter region of the mouse PCSK9 locus were tested, in addition to a non-targeting sequence complementary to the human PCSK9 gene (Table 14). Cells were harvested at 6, 13, and 25 days after transfection to measure intracellular levels of the PCSK9 protein using an intracellular flow cytometry staining protocol. Briefly, cells were fixed using 4% paraformaldehyde in PBS, permeabilized, and stained using a mouse anti-PCSK9 primary antibody (R&D Systems®), followed by a fluorescent goat anti-mouse IgG secondary antibody (Thermo Fisher®). […] Cell populations were gated using the non-targeting gRNA as a negative control.
Seeded Hepa1-6 cells treated with the NATE™ inhibitor were lipofected with 300 ng of mRNA encoding LTRP1-ZIM3, LTRP5-ZIM3, catalytically-active CasX 491, or dCas9-ZNF10-DNMT3A/3L, and 150 ng of PCSK9-targeting gRNA (Table 14). Intracellular levels of PCSK9 protein were measured at 7, 14, 21, 36, and 71 days post-transfection using an intracellular staining protocol as described earlier for experiment #1.
Transfection of mRNA and gRNA into Hepa1-6 cells and intracellular PCSK9 staining were performed as described in Example 2. Briefly, each well of seeded Hepa1-6 cells was transfected with 300 ng of mRNA encoding LTRP5-ZIM3 or LTRP5-ADD-ZIM3 and 150 ng of PCSK9-targeting gRNA with spacer 27.88 or 27.94. Intracellular levels of PCSK9 protein were measured at various timepoints, up to day 53 post-transfection using an intracellular staining protocol as described earlier in Example 2. A non-targeting gRNA was used as an experimental control.

PCSK9 protein = test: Western blot of intracellular pro-PCSK9 and processed PCSK9 in transfected HepG2 cells; type: cell-based, human; conditions: CasX 676 mRNA #2 + gRNA, western blot densitometry, two days post-transfection
Procedure: (§2) To determine whether use of certain PCSK9-targeting spacers would result in potential intracellular PCSK9 retention, ˜50,000 HepG2 cells were seeded per well in a 96-well plate. CasX 676 mRNA #2 was transfected into HepG2 cells with a PCSK9-targeting gRNA using Lipofectamine™. After a media change, the following were harvested two days post-transfection: 1) media supernatant to measure secreted PCSK9 protein levels by ELISA; and 2) transfected cells for western blotting analysis to evaluate intracellular PCSK9 levels. Harvested cells were subjected to whole cell lysate extraction for western blotting analysis. Briefly, extracted protein samples were resolved by SDS-PAGE followed by immunoblotting to analyze levels of pro-PCSK9 and processed PCSK9, which were quantified by densitometry. Secreted PCSK9 levels in the media supernatant were analyzed using the BioLegend® ELISA MAX™ kit following the manufacturer's instructions. Naïve, untreated cells and cells transfected with CasX 676 mRNA #2 only served as two experimental controls.

human PCSK9 locus [3] = test: Secreted PCSK9 by ELISA in HepG2 cells transfected with CasX 676 mRNA #2 and PCSK9-targeting gRNA; type: cell-based; conditions: CasX 676 mRNA #2 + gRNA scaffold 316 (v1), two days post-transfection
Procedure: In vitro transcription of CasX 676 mRNA #2 (sequence listed in Table 28, below) was performed as described in Example 7, below. Guide RNAs using scaffold 316 and a PCSK9-targeting spacer were synthesized with a v1 modification profile (as discussed in Example 7). Spacers 6.1, 6.8, 6.86, 6.114, 6.197, and 6.203 (sequences listed in Table 24) were assessed for intracellular PCSK9 retention.
as §2, with “Naïve, untreated cells and cells transfected with CasX 676 mRNA #2 only served as two experimental controls.” left out

HBEGF locus = type: cell-based, human; conditions: HEK293T; dCasX491 fusion, scaffold 174 spacer 34.28; 2 ng/ml diphtheria toxin for 48 hours

| Substance | number of differentially regulated off-target genes (Huh7 cells) | PCSK9 expression (RNA-seq) (human PCSK9 locus [1]) | Secreted PCSK9 (human PCSK9 locus [2]; 25 ng mRNA:12.5 ng gRNA) [ng/mL] | Percent reduction in PCSK9 secretion (human PCSK9 locus [2]; 25 ng mRNA:12.5 ng gRNA) [%] | Secreted PCSK9 (human PCSK9 locus [2]; 50 ng mRNA:25 ng gRNA) [ng/mL] | Percent reduction in PCSK9 secretion (human PCSK9 locus [2]; 50 ng mRNA:25 ng gRNA) [%] | Average percent reduction in PCSK9 secretion (human PCSK9 locus [2]) [%] | also measured |
| --- | --- | --- | --- | --- | --- | --- | --- | --- |
| AGGGUGUGGGUGCUUGACGC (listed as RNA, chemistry not given here) [spacer 6.154, Promoter] | higher number of differentially regulated off-target genes | durably repress PCSK9 expression through day 26 | 24.48 | 65.64 | 6.87 | 91.65 | 78.64 |  |
| AUGGUAGGCACAAGCUCAGC (listed as RNA, chemistry not given here) [spacer 6.133, Promoter] | lowest number of differentially regulated off-target genes | durably repress PCSK9 expression through day 26 | 42.13 | 40.86 | 29.45 | 64.21 | 52.53 |  |
| CACUGAAUAGCGCAGCCGCA (listed as RNA, chemistry not given here) [spacer 6.167, Intron 1] | higher number of differentially regulated off-target genes | durably repress PCSK9 expression through day 26 | 66.61 | 6.51 | 39.55 | 51.93 | 29.22 |  |
| CCCCUCUUAAUCCCCACUCC (spacer within chemically modified full gRNA with 2'-OMe and phosphorothioate ends, further chemistry not given here) [spacer 27.94, mouse PCSK9] |  |  |  |  |  |  |  | knockdown of intracellular PCSK9 (mouse PCSK9 locus; 300 ng LTRP1-ZIM3 mRNA + 150 ng gRNA (scaffold 174, v1), day 6): > 80%; permanence of PCSK9 silencing by spacer (mouse PCSK9 locus): strongest permanence in silencing PCSK9; durability of PCSK9 repression by spacer (mouse PCSK9 locus; paired with LTRP5-ZIM3 or LTRP5-ADD-ZIM3, day 53): more durable repression than use of spacer 27.88 by day 53; durable PCSK9 knockdown (mouse PCSK9 locus; third-party-produced mRNA paired with gRNAs containing various spacers, up to day 71): highest level of PCSK9 repression |
| CGCUACCUGCCUAAACUUUG (spacer within chemically modified full gRNA with 2'-OMe and phosphorothioate ends, further chemistry not given here) [spacer 27.88, mouse PCSK9] |  |  |  |  |  |  |  | permanence of PCSK9 silencing by spacer (mouse PCSK9 locus): strongest permanence in silencing PCSK9 |
| GAGGAGGACGGCCUGGCCGA (listed as RNA, chemistry not given here) [spacer 6.1, Exon 1] |  |  | 32.86 | 53.88 | 18.21 | 77.86 | 65.87 | intracellular pro-PCSK9 / intracellular protein levels (PCSK9 protein): did not result in substantially increased pro-PCSK9 levels; reduction in secreted PCSK9 levels compared to cells transfected with CasX 676 mRNA only (human PCSK9 locus [3]): ~50% |
| ZIM3: human ZIM3 KRAB repressor domain, SEQ ID NO: 128 [reference compound] |  |  |  |  |  |  |  | log 2 (fold change) of abundance before and after selection (HBEGF locus): 1.7787 |
| standard ZNF10: human ZNF10 KRAB repressor domain, SEQ ID NO: 129 [reference compound] |  |  |  |  |  |  |  | log 2 (fold change) of abundance before and after selection (HBEGF locus): 1.3637 |
